Converted amounts (≈) assume the structure as drawn.
Tested on: 30 strains of coliform bacilli collected from the living body of humans
Assay: MIC50/MIC70 against 30 strains of coliform bacilli
Type: cell-based
Conditions: 70% of the 30 strains; for MIC70 of ampicillin combined with present compound / MIC70 of cephalexin combined with present compound / MIC70 of mecillinam combined with present compound / MIC70 of piperacillin combined with present compound: present compound 10 μg/ml
Protocol: The MIC of ampicillin as combined with the present compound (10 μg/ml) was measured against the same bacteria. In the method, the bacteria cultivated in Mueller Hinton Broth (product of DIFCO) and diluted to 10^7 CFU/ml were inoculated into the same medium containing ampicillin and the present compound in a specific concentration, and incubated at 37° C. for 20 hours. […] The bacteria as used in the test were those capable of producing β-lactamase, among which the bacteria marked * in the table are those collected from the living body of human hosts and the others are a stock culture.
(2) Effects by antibiotics as combined with the present compound
The compounds of the present invention, ampicillin, mecillinam, piperacillin and cephalexin, each singly used, were also tested for minimal inhibitory concentration against 30 strains of coliform bacilli collected from the living body of humans. The MIC of each antibiotic as combined with the present compound (10 μg/ml) was likewise measured. Table 3 to 6 indicate the results in which MIC50 and MIC70 indicate the minimal inhibitory concentration for inhibiting the growth of 50% and 70% respectively of the strains. The MICs of the present compounds singly used were all more than 25 μg/ml.

SMILES	MIC70, ampicillin singly used [µg/mL]	MIC70 of ampicillin combined with present compound [µg/mL]	MIC70 of cephalexin combined with present compound [µg/mL]	MIC70 of mecillinam combined with present compound [µg/mL]	MIC70 of piperacillin combined with present compound [µg/mL]
CC1(C)S[C@@H]2[C@H](NC(=O)[C@H](N)c3ccccc3)C(=O)N2[C@H]1C(=O)O [Ampicillin, ampicillin, reference compound]	400 (≈ 1140 µM)				
CCOC(=O)c1cn(C[C@@]2(C)[C@H](C(=O)O)N3C(=O)C[C@H]3S2(=O)=O)nn1 [Compound 7, sodium 2β-(4-ethoxycarbonyl-1,2,3-triazol-1-yl)methyl-2α-methylpenam-3α-carboxylate-1,1-dioxide]		50	100	0.39	6.25
CCOC(=O)c1cnnn1C[C@@]1(C)[C@H](C(=O)O)N2C(=O)C[C@H]2S1(=O)=O [Compound 11, sodium 2β-(5-ethoxycarbonyl-1,2,3-triazol-1-yl)methyl-2α-methylpenam-3α-carboxylate-1,1-dioxide]		100	100	0.39	25
C[C@]1(Cn2cc(C(=O)O)nn2)[C@H](C(=O)O)N2C(=O)C[C@H]2S1(=O)=O [Compound 16, dipotassium 2β-(4-carboxy-1,2,3-triazol-1-yl)methyl-2α-methylpenam-3α-carboxylate-1,1-dioxide]		6.25	25	0.1	3.13
C[C@]1(Cn2nncc2C(=O)O)[C@H](C(=O)O)N2C(=O)C[C@H]2S1(=O)=O [Compound 17, dipotassium 2β-(5-carboxy-1,2,3-triazol-1-yl)methyl-2α-methylpenam-3α-carboxylate-1,1-dioxide]		100		0.39	50
C[C@]1(Cn2ccnn2)[C@H](C(=O)O)N2C(=O)C[C@H]2S1(=O)=O [Compound 22, sodium 2α-methyl-2β-(1,2,3-triazol-1-yl)methylpenam-3α-carboxylate-1,1-dioxide]		6.25	50	0.2	1.56
